Test results: paper PMC9148196 (The AAPS journal, 2021)

Target: P-glycoprotein (P-gp, MDR1) (Homo sapiens, UniProt P08183)
Assay: basal-to-apical [3H]digoxin flux in MDCK-hMDR1-cMDR1-KO cells, dose-response
Format: cell-based

Sequence of P-glycoprotein (P-gp, MDR1) (P08183 whole entry): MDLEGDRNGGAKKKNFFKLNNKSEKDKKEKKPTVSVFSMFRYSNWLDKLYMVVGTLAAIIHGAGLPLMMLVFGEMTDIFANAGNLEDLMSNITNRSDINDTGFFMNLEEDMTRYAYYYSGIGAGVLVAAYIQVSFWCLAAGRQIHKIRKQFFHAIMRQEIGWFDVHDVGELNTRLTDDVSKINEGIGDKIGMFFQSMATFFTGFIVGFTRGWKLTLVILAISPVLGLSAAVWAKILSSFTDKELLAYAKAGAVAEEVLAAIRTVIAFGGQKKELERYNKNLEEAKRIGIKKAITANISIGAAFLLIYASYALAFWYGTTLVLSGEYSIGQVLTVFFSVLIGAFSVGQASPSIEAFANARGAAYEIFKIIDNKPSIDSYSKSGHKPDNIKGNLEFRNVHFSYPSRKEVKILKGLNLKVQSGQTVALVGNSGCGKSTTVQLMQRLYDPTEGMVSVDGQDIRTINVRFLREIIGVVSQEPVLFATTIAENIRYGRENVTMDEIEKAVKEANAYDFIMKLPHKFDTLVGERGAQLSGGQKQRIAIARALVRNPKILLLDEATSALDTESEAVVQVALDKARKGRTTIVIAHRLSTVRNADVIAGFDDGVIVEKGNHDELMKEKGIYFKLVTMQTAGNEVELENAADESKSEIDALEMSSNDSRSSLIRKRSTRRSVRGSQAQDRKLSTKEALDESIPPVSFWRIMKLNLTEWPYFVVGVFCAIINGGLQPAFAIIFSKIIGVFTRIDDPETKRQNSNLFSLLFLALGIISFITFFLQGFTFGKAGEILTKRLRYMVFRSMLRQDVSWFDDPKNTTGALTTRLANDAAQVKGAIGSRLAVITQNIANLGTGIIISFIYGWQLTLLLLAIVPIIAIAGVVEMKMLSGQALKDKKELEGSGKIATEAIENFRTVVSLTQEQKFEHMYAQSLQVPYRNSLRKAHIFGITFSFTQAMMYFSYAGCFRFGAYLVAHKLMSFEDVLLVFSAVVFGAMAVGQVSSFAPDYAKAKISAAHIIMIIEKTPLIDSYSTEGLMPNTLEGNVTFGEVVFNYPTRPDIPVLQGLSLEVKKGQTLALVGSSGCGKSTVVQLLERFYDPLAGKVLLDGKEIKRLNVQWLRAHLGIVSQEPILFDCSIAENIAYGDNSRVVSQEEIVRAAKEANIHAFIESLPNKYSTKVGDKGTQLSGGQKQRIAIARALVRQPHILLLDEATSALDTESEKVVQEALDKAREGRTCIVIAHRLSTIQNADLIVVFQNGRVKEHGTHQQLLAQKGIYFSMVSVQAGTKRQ

IC50: 204 µM
Structure (SMILES): CCN(Cc1cccc(S(=O)(=O)O)c1)c1ccc(C(=C2C=CC(=[N+](CC)Cc3cccc(S(=O)(=O)[O-])c3)C=C2)c2ccc(S(=O)(=O)O)cc2)cc1 [Light green SF yellowish]
